# In patent US12384765B2, “Catecholamine prodrugs for use in the treatment of Parkinson's Disease” (H. Lundbeck A/S, priority 2019, dated 2025):
# “Also recorded” adds a separate entry of the source.
# Key:
# [1] = Liu et al., Bioorganic Med. Chem. (2008); cited from earlier work
# [2] = Conversion of compounds in human plasma; assay type: in vitro ADME
# Method: Frozen human plasma was thawed and then centrifuged at 3200×g for 5 min to remove debris. The pH value of the supernatant was then measured and adjusted to 7.4±0.1 by adding 1% phosphoric acid or 1 N sodium hydroxide. 2 μL of dosing solution (50 μM for test compounds and 100 μM for positive control (propantheline bromide)) was mixed with 98 μL of blank plasma to achieve 1 μM test compound and 2 μM positive control of final concentration. The mixture was incubated, and samples were withdrawn from the incubations at the pre-determined time points of 0, 0.5, 1, 2, 4 and 6 hr (in duplicate) at 37° C. in water bath. At each corresponding time point 10 μL inhibitor and 20 μL ascorbic acid and 2 μL formic acid (20%) are added, and then added 400 μL of “stop solution” (200 ng/mL tolbutamide plus 200 ng/mL labetalol in 50% ACN/MeOH) to precipitate protein. The substance was mixed thoroughly and thereafter Centrifugated at 4,000 rpm for 20 minutes. Then an aliquot of supernatant (50 μL) was transferred from each well to a sample plate and mixed with 100 μL ultrapure water. The plate was shaked at 800 rpm for about 10 minutes before submitting to LC-MS/MS analysis.
# (§1) Mass spectrometer (LC-MS/MS) Shimadzu LC 20-AD Shimadzu UHPLC API 4000. Analytical column ACQUITY UPLC® BEH Phenyl 1.7 μm 2.1×50 mm. Mobile phase A: 0.1% Formic Acid in Water. Mobile phase B: 0.1% Formic Acid in Acetonitrile. […] Flow rate 0.7 mL/min.
# [3] = WO 2010/097092; cited from earlier work
# [4] = Liu et al.; cited from earlier work
# [5] = PK experiments in rats, plasma compound (I) after oral dosing; assay type: in vivo, Han Wistar rats; settings: for plasma concentrations of compound (I) after oral dosing (in words): oral dosing to Wistar rats
# Method: Plasma was placed on water-ice following collection. Final storage at approximately −70° C.
# Mobile phase B: Acetonitrile. […] Flow rate 0.5 mL/min.
# The rats had unrestricted access to the diet.
# Mobile phase B: Acetonitrile+0.2% formic acid. […] Flow rate 0.3 mL/min.
# The rats received a standard laboratory diet Teklad 2014C. The rats had unrestricted access to the diet.
# human 5-HT2B receptor [6] = molecular target: T1, human 5-HT2B receptor (Homo sapiens (Human), UniProt P41595); assay: 5-HT2B agonist activity assay (IP1 production, HTRF); assay type: cell-based
# Method: Evaluation of the agonist activity of compounds (I), (Ia), (Ib), (Ic), (Ia-iab), compound (2), compound (9), compound (15), compound (27), A2, A3, and A7 at the human 5-HT2B receptor was performed by Eurofins/Cerep (France) measuring the compound effects on inositol monophosphate (IP1) production using the HTRF detection method. Briefly, the human 5-HT2B receptor was expressed in transfected CHO cells. The cells were suspended in a buffer containing 10 mM Hepes/NaOH (pH 7.4), 4.2 mM KCl, 146 mM NaCl, 1 mM CaCl2, 0.5 mM MgCl2, 5.5 mM glucose and 50 mM LiCl, then distributed in microplates at a density of 4100 cells/well and incubated for 30 minutes at 37° C. in the presence of buffer (basal control), test compound or reference agonist. For stimulated control measurement, separate assay wells contained 1 μM 5-HT. Following incubation, the cells were lysed and the fluorescence acceptor (fluorophen D2-labeled IP1) and fluorescence donor (anti-IP1 antibody labeled with europium cryptate) were added. After 60 minutes at room temperature, the fluorescence transfer was measured at lambda(Ex) 337 nm and lambda(Em) 620 and 665 nm using a microplate reader (Rubystar, BMG). The IP1 concentration was determined by dividing the signal measured at 665 nm by that measured at 620 nm (ratio). The results were expressed as a percent of the control response to 1 μM 5-HT. The standard reference agonist was 5-HT, which was tested in each experiment at several concentrations to generate a concentration-response curve from which its EC50 value is calculated as described above for dopamine functional assays.
# rat hepatocytes = settings: WO 2010/097092; cited from earlier work
# human hepatocytes [7] = settings: WO 2010/097092; cited from earlier work
# male CD rats = assay: Rat locomotor activity (hyperactivity) assay, open field; assay type: in vivo; settings: for end of locomotor effect post administration: recording until 415-minute time point
# Method: In total, 206 male CD rats (Charles River, Germany) weighing 200-250 grams (165-190 grams upon arrival) were used in the study. Animals were housed at a standard temperature (22±1° C.) and in a light-controlled environment (lights on from 7 am to 8 pm) with ad libitum access to food and water. The experiment described below was performed in accordance with the standard operating procedures of Charles River Discovery Research Services Finland Ltd. and in accordance with the national Animal Experiment Board of Finland (Elainkoelautakunta, ELLA) authority on animal testing.
# The test device is a square Plexiglass-arena (measuring 40×40×40 cm), in which the movement paths of the rats are recorded by an activity monitor (Med. Associates Inc.). Before the test period is initiated, rats are habituated to their test cage for 60 minutes. Upon completion of habituation, animals were treated with either compound or vehicle and placed back into the open field apparatus. The main test parameter measured is ambulatory distance (recorded in 5 minute segments). Overall time of measurement after receiving initial treatment was 360 minutes. Total follow up period in the study was 420 minutes, including 60 minutes of habituation.
# Blood samples were taken and processed and analyzed as described under PK experiments in rats in Example 3.
# [8] = In vitro dopaminergic activity (data not shown)
# human 5-HT2B receptor [9] = molecular target: T1, human 5-HT2B receptor; assay: 5-HT2B binding assay; settings: [125I](±)DOI, read-out: 5-HT2B binding affinity (% inhibition of control, specific binding)
# Method: Evaluation of the affinity of said compounds for the human 5-HT2B receptor was determined in a radioligand binding assay at Eurofins/Cerep (France). Membrane homogenates prepared from CHO cells expressing the human 5HT2B receptor were incubated for 60 min at room temperature with 0.2 nM [125I](±)DOI (1-(4-iodo-2,5-dimethoxyphenyl)propan-2-amine) in the absence or presence of the test compound in a buffer containing 50 mM Tris-HCl (pH 7.4), 5 mM MgCl2, 10 μM pargyline and 0.1% ascorbic acid. Nonspecific binding is determined in the presence of 1 μM (±)DOI. Following incubation, the samples were filtered rapidly under vacuum through glass fiber filters (GF/B, Packard) presoaked with 0.3% polyethyleneimine (PEI) and rinsed several times with ice-cold 50 mM Tris-HCl using a 96-sample cell harvester (Unifilter, Packard). The filters were dried and counted for radioactivity in a scintillation counter (Topcount, Packard) using a scintillation cocktail (Microscint 0, Packard). The results are expressed as a percent inhibition of the control radioligand specific binding. The standard reference compound was (±)DOI, which was tested in each experiment at several concentrations to obtain a competition curve from which its IC50 is calculated.
# human hepatocytes [10] = assay: Conversion of compounds in human hepatocytes; assay type: in vitro ADME; settings: 1 μM compound, 37° C.; nd: not detected
# Method: Incubations were conducted in 96-well plates at 1 μM compound concentration in duplicate. The hepatocyte cell concentration was 0.5×10^6 cells/mL used for final incubation at 37° C. in an incubator of 5% CO2 95% relative humidity. The medium control samples were included at 0 and 60 minutes in the absence of cells. The total organic concentration was 1% (DMSO 0.1%) in the final incubation. The controls, (7-ethoxycoumarin and 7-hydroxycoumarin) was incubated parallel at 3 μM. 2 μL of dosing solution (50 μM for test compounds and 100 μM for positive control) was mixed with 98 μL of 100 mM PBS to achieve 1 μM test compound and 2 μM positive control of final concentration. The mixture was incubated, and samples were withdrawn from the incubations at pre-determined time points of 0, 0.5, 1, 2, 4 and 6 hr (in duplicate) at 37° C. in water bath. To each sample, 10 μL inhibitor and 20 μL ascorbic acid and 2 μL formic acid (20%) were added followed by 400 μL of stop solution (200 ng/mL tolbutamide plus 200 ng/mL labetalol in 50% ACN/MeOH). The substance was mixed thoroughly and thereafter centrifuged at 4,000 rpm for 20 minutes. An aliquot of supernatant (50 μL) from each well were transferred to a sample plate and mixed with 100 μL ultrapure water. The plate was shaked at 800 rpm for about 10 minutes before submitting to LC-MS/MS analysis.
# as §1
# [11] = intravenous (IV), PD patients; cited from earlier work
# [12] = in man after oral dosing; cited from earlier work
# [13] = (Id-ia) 10 to 300 μg/kg p.o., apomorphine 3 mg/kg s.c., pramipexole 0.3 mg/kg s.c.
# [14] = (Id-ia) 10 to 300 μg/kg p.o., apomorphine 3 mg/kg s.c.
# T1 sequence (P41595 whole entry): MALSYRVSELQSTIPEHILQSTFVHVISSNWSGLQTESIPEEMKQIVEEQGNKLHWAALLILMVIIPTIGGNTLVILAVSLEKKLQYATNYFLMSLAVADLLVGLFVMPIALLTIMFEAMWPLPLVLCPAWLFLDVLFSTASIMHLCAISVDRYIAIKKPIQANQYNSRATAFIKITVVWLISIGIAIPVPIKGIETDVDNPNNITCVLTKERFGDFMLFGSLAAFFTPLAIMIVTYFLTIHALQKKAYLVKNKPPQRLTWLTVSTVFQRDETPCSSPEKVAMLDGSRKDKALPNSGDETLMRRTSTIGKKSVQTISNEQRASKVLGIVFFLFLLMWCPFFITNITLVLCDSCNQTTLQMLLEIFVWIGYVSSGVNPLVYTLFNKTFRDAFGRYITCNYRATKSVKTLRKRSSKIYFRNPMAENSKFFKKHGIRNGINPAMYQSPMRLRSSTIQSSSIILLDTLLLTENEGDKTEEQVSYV
structure (smiles),measurement,setting,value
"CCCN1CCC[C@@H]2Cc3c(ccc(O)c3O)C[C@H]21 [(I), (4aR,10aR)-1-Propyl-1,2,3,4,4a,5,10,10a-octahydro-benzo[g]quinoline-6,7-diol]",oral bioavailability (in words),[1],low oral bioavailability
same,half-life in the plasma assay,[2]; human plasma,short half-life
same,in vivo pharmacology in animal models relevant for Parkinson's Disease,[3],effective
"CCCN1CCC[C@@H]2CC3=C(CCCC3=O)C[C@H]21 [(Ia), reference compound]",conversion to compound (I) in rats,[4],converted to the active compound (I)
same,plasma concentrations of compound (I) after oral dosing (in words),[5],early and high peak plasma concentrations
same,EC50,"human 5-HT2B receptor [6]; IP1 production, transfected CHO cells",> 6 µM
same,activity at 30 µM,"human 5-HT2B receptor [6]; read-out: 5-HT2B agonist activity, percent of control response",58%
same,in vivo pharmacology in animal models relevant for Parkinson's Disease,[3],effective
"CCCN1CCC[C@@H]2Cc3c(ccc4c3OCO4)C[C@H]21 [(Ib), (6aR,10aR)-7-propyl-6,6a,7,8,9,10,10a,11-octahydro-[1,3]dioxolo[4′,5′:5,6]benzo[1,2-g]quinoline]",plasma concentrations of compound (I) after oral dosing (in words),[5],early and high peak plasma concentrations
same,conversion to compound (I) in rat hepatocytes,rat hepatocytes,demonstrated
same,5-HT2B receptor agonism (in words),human 5-HT2B receptor [6],agonist
same,conversion to compound (I) in human hepatocytes,human hepatocytes [7],demonstrated
same,in vivo pharmacology in animal models relevant for Parkinson's Disease,[3],effective
"CCCN1CCC[C@@H]2Cc3c(ccc(O)c3O[C@@H]3O[C@H](C(=O)O)[C@@H](O)[C@H](O)[C@H]3O)C[C@H]21 [(Id-ia), (2S,3S,4S,5R,6S)-3,4,5-trihydroxy-6-(((4aR,10aR)-7-hydroxy-1-propyl-1,2,3,4,4a,5,10,10a-octahydrobenzo[g]quinolin-6-yl)oxy)tetrahydro-2H-pyran-2-carboxylic acid]",effect on locomotor activity,male CD rats; [13],dopaminergic effect; also recorded: increases locomotor activity
same,start of locomotor effect post-administration,male CD rats; [13],~2 h
same,end of locomotor effect post administration,male CD rats; [14],lasting until the end of recording
same,total distance travelled,"male CD rats; relative to vehicle, FIG. 4",significantly increased activity
same,"Observed metabolite, In vivo PK study after oral dosing (rats)",[5],Compound (I)
same,in vitro dopaminergic activity,[8],no in vitro dopaminergic activity
"CCCN1CCC[C@@H]2Cc3c(ccc(O[C@@H]4O[C@H](C(=O)O)[C@@H](O)[C@H](O)[C@H]4O)c3O)C[C@H]21 [(Id-ib), (2S,3S,4S,5R,6S)-3,4,5-tri hydroxy-6-(((4aR,10aR)-6-hydroxy-1-propyl-1,2,3,4,4a,5,10,10a-octahydrobenzo[g]quinolin-7-yl)oxy)tetrahydro-2H-pyran-2-carboxylic acid]","Observed metabolite, In vivo PK study after oral dosing (rats)",[5],Compound (I)
same,"Observed metabolite, Incubation in human plasma","[2]; 1 μM test compound, 37° C., 0-6 hr, nd: not detected",Compound (I)
same,inhibition at 10 µM,human 5-HT2B receptor [9],-39%
same,"Observed metabolite, Incubation in human hepatocytes",human hepatocytes [10],Compound (I)
"CCCc1cc2c(s1)CN[C@@H]1CCc3cc(OC(C)=O)c(OC(C)=O)cc3[C@@H]21 [Adrogolide, adrogolide]",antiparkinson efficacy,[11],comparable to that of L-DOPA
same,oral bioavailability,[12],~4%
"CN1CCc2cccc3c2[C@H]1Cc1ccc(O)c(O)c1-3 [apomorphine, reference compound]",end of locomotor effect post administration,male CD rats; [14],1.5 h
